# Data reported in patent US11136292B2, “Plant growth regulator compounds” (SYNGENTA PARTICIPATIONS AG, priority 2016, dated 2021).
# Read-outs that look alike come from different tables or passages of the source.
# Test system: NK Falkone 2015 corn seeds
# Assay: Corn seed germination under cold stress (Example B1)
# Assay type: in vivo
# Conditions: Zea mays, cold stress 15° C.; for change in vivo at 2 µM: Rate 2 μM; for change in vivo at 10 µM: Rate 10 μM; for change in vivo at 50 µM: Rate 50 μM; for change in vivo at 250 µM: Rate 250 μM
# Description: The effect of compounds of formula (I) on the germination of NK Falkone 2015 corn seeds under cold stress was evaluated as follows. NK Falkone corn seeds were sorted by size using 2 sieves, one excluding very big seeds and the other with round holes of 8 to 9 mm diameter. The seeds retained by the latter sieve were used for the germination test. The corn seeds were placed in 24 well plates (each plate was considered as one experimental unit or replicate). Germination was initiated by the addition of 250 μl of distilled water containing 0.5% DMSO per well as a means for compound solubilization. 8 replicates (ie, 8 plates) were used for each treatment characterization. Plates were sealed using seal foil (Polyolefin Art. Nr. 900320) from HJ-BIOANALYTIK. All plates were placed horizontally on trolleys in a climatic chamber at 15° C. The experiment was laid out in a completely randomized design in climatic chamber with 75% Relative Humidity. Foils were pierced, one hole per well using a syringe after 72 hours for experiments performed at 15° C.
# Germination was followed over time by taking photographs at different time points. Image analysis was performed automatically with a macro which was developed using the Image J software. A dynamic analysis of germination was carried out by fitting a logistic curve. Three parameters were calculated from the logistic curve: the T50; the slope and the plateau. All three parameters have a high agronomical relevance and are key requirements to ensure a good early crop-establishment. All the values are expressed as percentages compared to an untreated control. All the three parameters are calculated considering 8 replicates and the kinetic parameters are separately determined for each germination curve. Data in bold indicate germination enhancing statistically significant differences between treated seeds and untreated control (p<0.05). The T50 corresponds to the time needed for half of the seed population to germinate. Higher negative %-values indicate faster germination. The slope indicates how synchronous the germination of the seed population is. Positive values indicate steeper curve; the steeper the curve, the better and more uniform the germination is.
# [1] = slope of logistic germination curve, read-out: Slope (% vs control)
# [2] = time for half of seeds to germinate, control T50 = 110 hours, read-out: T50 (% vs control)
SMILES,change in vivo at 2 µM [1],change in vivo at 2 µM [2],change in vivo at 10 µM [1],change in vivo at 10 µM [2],change in vivo at 50 µM [1],change in vivo at 50 µM [2],change in vivo at 250 µM [1],change in vivo at 250 µM [2]
CCOC(=O)/C(=C/OC1C=C(C)C(=O)O1)C1CCc2ccccc21 (stereo not shown) [Compound I-1],8.1%,-0.5%,10%,1.6%,27.9%,-2.8%,142%,-7.2%
CCOC(=O)/C(=C/OC1OC(=O)C(C)=C1C)C1CCc2ccccc21 (stereo not shown) [Compound I-2],-11.8%,2.3%,18.1%,-3%,47%,-6.2%,121%,-10.1%
CCOC(=O)/C(=C/OC1C=C(C)C(=O)N1c1cc(C(F)(F)F)cc(C(F)(F)F)c1)C1CCc2ccccc21 (stereo not shown) [Compound I-7],63.9%,-3.4%,69.8%,-3.5%,78.8%,-6.6%,11.3%,-1.8%
COC(=O)/C(=C/OC1C=C(C)C(=O)O1)C1CCc2ccccc21 (stereo not shown) [Compound I-10],8.2%,-0.9%,10.7%,-0.8%,30.3%,-3.3%,82.5%,-7.4%
COC(=O)/C(=C/OC1OC(=O)C(C)=C1C)C1CCc2ccccc21 (stereo not shown) [Compound I-11],11.4%,-1%,7.4%,0.2%,20.1%,-5.1%,89.6%,-6.9%
CNC(=O)/C(=C/OC1C=C(C)C(=O)O1)C1CCc2ccccc21 (stereo not shown) [Compound I-37-1],10.8%,-1.3%,-15.7%,-2.5%,5.2%,-2.6%,51.7%,-4.6%
CNC(=O)/C(=C/OC1C=C(C)C(=O)N1c1cc(C(F)(F)F)cc(C(F)(F)F)c1)C1CCc2ccccc21 (stereo not shown) [Compound I-55-1],-8.1%,1.7%,3.8%,-1.4%,61.1%,-6.8%,89.8%,-10.6%
CCOC(=O)/C(=C/OC1C=C(C)C(=O)O1)C1CCc2cc(OC)c(OC)cc21 (stereo not shown) [Compound I-64],1.1%,-1.4%,-1.6%,-3.2%,27.9%,-4.6%,83.8%,-10.7%
CCOC(=O)/C(=C/OC1OC(=O)C(C)=C1C)C1CCc2cc(OC)c(OC)cc21 (stereo not shown) [Compound I-65],1%,-0.9%,18.8%,-3.1%,23%,-2.6%,123%,-12.6%
CCOC(=O)/C(=C/OC1C=C(C)C(=O)O1)C1CCc2cc3c(cc21)OCO3 (stereo not shown) [Compound I-66],22.6%,-5.2%,2.9%,-2.9%,34.5%,-5.1%,31.6%,-5.8%
CCOC(=O)/C(=C/OC1C=C(C)C(=O)O1)C1CCc2c(C)cccc21 (stereo not shown) [Compound I-68],23.4%,-1.2%,3.8%,-0.6%,44.7%,-5.7%,113%,-6.8%
